Test results published in patent publication US20210338679A1, “NOVEL USES” (INTRA-CELLULAR THERAPIES, INC., priority 2018, published 2021).

Key:
[1] = tested on: leukocytes, neutrophils, and macrophages (M1/M2 macrophages); assay: Mouse zymosan pleurisy model, flow cytometry of infiltrating cells; type: in vivo, mice; conditions: for inflammatory resolution (shift from M1 to M2): zymosan sterile inflammation, FIGS. 1-9
Description: (§1) Zymosan is injected into the pleural cavities of mice in order to induce sterile inflammation. Infiltration of leukocytes, neutrophils, and macrophages are monitored at days 3 and 7 following injection. Detection of various cell types are identified according to the gating strategy outlined in Table 1 below.
In this model, injection of zymosan causes the recruitment of various waves of leukocytes, which are observed and recorded. Exudate volume increases to a maximum over a period of 24 hours, and neutrophils increase within 4 hours and reach a maximum by 48 hours. Lymphocytes of the adaptive immune system enter at a later stage, after three days, which is signaled by macrophages presenting antigens. A resolution phase is well documented in this model and is accompanied by decreased total macrophage number and transition into M2 phenotype.
In the studies, Compounds 1 and 2 were administered to the test subjects, and the effect the compounds had on infiltration of leukocytes, neutrophils, and macrophages was observed.
Similar tests were conducted with Compound 2, the results of which are illustrated in FIGS. 8 and 9. […] An additional test was carried out according to the same method. Mice were injected intraperitoneally with 1 mg Zymosan followed by 10 mg/kg Compound 1. Macrophage levels were recorded at injection, then at 4, 8, 16, 24, 48 and 72 hours post-injection.

[2] = tested on: cytokine markers (IFNγ, IL-1β, MCP1-β, TNF-α, IL10, MCP-1/CCL2); assay: Inflammatory cytokine biomarkers in mouse zymosan pleurisy model; type: in vivo, mice
Description: as §1
(§2) Zymosan was injected into the pleural cavities of mice in order to induce sterile inflammation by the methods discussed in Example 1. Compound 1 was administered to test subjects to observe the effects on a variety of inflammatory biomarkers. […] IFNγ, IL-1β, MCP1-β and TNF-α decreased following administration of Compound 1 in all serum and plasma samples.

[3] = tested on: metabolites of AA and DHA; assay: Detection of arachidonic acid and docosahexaenoic acid metabolites in mouse zymosan pleurisy model; type: in vivo, mice
Description: as §2, with “biomarkers. Results were recorded after 4 hours.” for “biomarkers.”
Lipids are known to be involved in regulation of a multitude of cellular responses including cell growth and death, and inflammation/infection, via receptor-mediated pathways. Various lipids are involved in both the initiation and resolution of inflammation. Pro-resolving lipid mediators are produced naturally in the body from unsaturated fatty acids, such as arachidonic acid (AA) and docosahexaenoic acid (DHA). Further studies were carried out to identify metabolites of AA and DHA, which are summarized below in Tables 2 and 3.

BV2 cells = assay: Microglia chemotaxis assay; type: cell-based; conditions: 100 μM ADP, 4 hours; FIG. 10
Description: BV2 cells were added to upper chamber of a 5 μm pore Transwell 96-well plate over a reservoir containing 100 μM ADP and incubated at 37° C. with 5% CO2 for 4 hours. After the incubation cells were harvested with pre-warmed cell detachment solution for 30 minutes in the same incubation conditions. 75 μl of this cell detachment solution was combined with 75 μl of culture medium in a new 96 well plate compatible with a fluorescence reader. Cell number in bottom chamber was determined by adding CyQuant® GR dye and reading in the Envision fluorescence reader at 480 nm EX/520 nm EM.

[4] = tested on: leukocytes, neutrophils, and macrophages (M1/M2 macrophages); assay: Mouse zymosan pleurisy model, flow cytometry of infiltrating cells; type: in vivo, mice; conditions: 1 mg Zymosan i.p. followed by 10 mg/kg; day 7; FIG. 11A
[5] = after 4 hours, serum and plasma samples
[6] = arachidonic acid metabolite, compared with controls
[7] = docosahexaenoic acid metabolite

CN1C(=O)c2c(nn(Cc3ccc(-c4cccc(F)n4)cc3)c2Nc2ccccc2)N2C1=N[C@@H]1CCC[C@@H]12 [Compound 1]
Arg1+ M2 macrophages ([1]; 1 mg Zymosan i.p. followed by 10 mg/kg, 4 hours, FIG. 12A): increased | M1 macrophage levels ([1]; 1 mg Zymosan i.p. followed by 10 mg/kg, all observed times, FIGS. 11A, 11B): lower M1 macrophage levels | CD206+ M2 macrophages ([1]; 1 mg Zymosan i.p. followed by 10 mg/kg, relative to control at 2 and 3 days): significantly increased | MFI for CD38+ on macrophages ([1]; day 3, among all animal groups, FIG. 6A): lowest value | total numbers of CD38+ macrophages ([1]; day 3, FIG. 5A): decreased | number of neutrophils ([1]; day 7, compared with disease only and vehicle animals, FIG. 3A): less dramatic decrease | inflammatory resolution (shift from M1 to M2) [1]: enhanced inflammatory resolution | IL10 ([2]; after 4 hours, serum): decrease | IFNγ [2, 5]: decreased | IL-1β [2, 5]: decreased | MCP1-β [2, 5]: decreased | TNF-α [2, 5]: decreased | inflammatory biomarkers (MCP-1/CCL2) ([2]; plasma, at 3 and 7 days, in comparison with control groups, FIG. 7): less inflammatory biomarkers | 5-HETE (intermediate mediator linked to resolution) [3, 6]: No change | 12-HETE (intermediate mediator linked to resolution) [3, 6]: Increase | 15-HETE (intermediate mediator linked to resolution) [3, 6]: Increase | LTB4 (pro-inflammatory mediator) [3, 6]: No change | PGE2 (pro-inflammatory mediator) [3, 6]: Decrease | TXB2 (pro-inflammatory mediator) [3, 6]: Decrease | 14-HDOHE (resolution mediator) [3, 7]: Increase | 17-HDOHE (intermediate mediator linked to resolution) [3, 7]: Increase | RVD5 (intermediate mediator linked to resolution) [3, 7]: Increase | motility of the BV2 cells across the membrane (BV2 cells): marked dampening effect | CD80+ macrophages (M1), difference to control [4]: significant different

CN1C(=O)c2c(nn(Cc3ccc(-c4ccccn4)cc3)c2Nc2ccccc2)N2C1=N[C@@H]1CCC[C@@H]12 [Compound 2]
CD38+ macrophages ([1]; 3 mg/kg, day 7, FIG. 8): significant drop | Erg2+ macrophages ([1]; 3 mg/kg, day 7, FIG. 9): sharp and significant increase | inflammatory resolution (shift from M1 to M2) [1]: enhanced inflammatory resolution

C[C@@H]1C[C@H]2[C@@H]3CCC4=CC(=O)C=C[C@]4(C)[C@@]3(F)[C@@H](O)C[C@]2(C)[C@@]1(O)C(=O)CO [Dexamethasone, reference compound]
number of CD38+ macrophage populations ([1]; 2 mg/kg, day 3 or 7, FIG. 8): no significant effect | number of Erg2+ macrophage populations ([1]; 2 mg/kg, day 3 or 7, FIG. 9): no significant effect
